We go through eight compounds from patent publication US6171866A, “Luminescence indicator for determining calcium ions” (AVL Medical Instruments, priority 1998, dated 2001).

What is called Kd is the free concentration of one partner at which half of the binding sites on the other are occupied at equilibrium, for simple one-to-one binding.

This assay is described as follows: Determination of the Kd values of ionophores from UV-absorption Ca^2+ titration curves. It is filed as binding. Conditions: aqueous solution, 30 mmol/l tris/HCl buffer, CO2-free, pH 7.4; absorption at 248 nm; 0.00001 to 0.5 mol/l Ca^2+; calculated from found pKd. As for the experimental part:
wherein, at a given ionic strength and temperature, the dissociation constant (Kd) is given by Equation 2, [formula]
The PKd value (Equation 3) is the negative common logarithm of the dissociation constant:
The absorption values in dependence on the Ca^2+ concentration were measured using a commercial photometer, at an absorption wavelength of 248 nm. The resulting titration curves were normalized to the value Amax =1 at a Ca^2+ concentration of 0.00001 mol/l using Equation 4 (see below).
The Kd values of the ionophores were determined from the measured absorption values of the Ca^2+ -titration curves according to Equation 3 (see above) and Equation 4 [formula]
wherein Ax is the normalized absorption value at the given Ca^2+ concentration, Amax is the absorption value at 0.00001 mol/l Ca^2+ and pKd has the meaning indicated in Equation 3.
They were determined from the found pKd values by means of Equation 3.

With `COc1ccc(Cl)cc1N(CCOCC(=O)O)CCOCC(=O)O` [Ionophore X8, Potassium 5-chloro-o-anisidine-N,N-diethoxyacetate], the Kd is 720 µM.
`CCCCN(CCN(CC(=O)O)CC(=O)O)c1ccccc1OC` [Ionophore X4, Potassium N-[2-(N'-butyl-N'-(2-methoxyphenyl)aminoethyl)]-imino-N,N-diacetate]: the equilibrium dissociation constant (Kd) is 9140 µM.
Regarding `COCCN(CCN(CC(=O)O)CC(=O)O)c1ccccc1OC` [Ionophore X2, Potassium N-[2-(N'-methoxyethyl-N'-(2-methoxyphenyl)aminoethyl)]-imino-N,N-diacetate], the dissociation constant (Kd) is 330 µM.
As for `COc1ccccc1N(CCOCC(=O)O)CCOCC(=O)O` [Ionophore X6, Potassium-o-anisidine-N,N-diethoxyacetate], the Kd was 200 µM.
In the case of `COc1ccccc1N(CCOc1ccccc1)CCN(CC(=O)O)CC(=O)O` [Ionophore X5, Potassium N-[2-(N'-phenoxyethyl-N'-(2-methoxyphenyl)aminoethyl)]-imino-N,N-diacetate] it was 6960 µM; in that of `COCCN(CCOC)c1ccccc1OCCN(CC(=O)O)CC(=O)O` [Ionophore X9, Potassium N-[2-(N',N'-dimethoxyethyl)aminophenoxyethyl]imino-N,N-diacetate], 6160 µM; in that of `CCOCCN(CCN(CC(=O)O)CC(=O)O)c1ccccc1OC` [Ionophore X3, Potassium N-[2-(N'-ethoxyethyl-N'-(2-methoxyphenyl)aminoethyl)]-imino-N,N-diacetate], 1040 µM.
With `CCOc1ccccc1N(CCOCC(=O)O)CCOCC(=O)O` [Ionophore X7, Potassium o-phenetidine-N,N-diethoxyacetate], the Kd was 1090 µM.
